Measurements published in ChEMBL document CHEMBL3991601, “The target landscape of clinical kinase drugs” (Science, 2017).
The source made the active and inactive calls.

Key:
Actin-related protein 2 = Actin-related protein 2 (Homo sapiens, UniProt P61160)
Aurora kinase A = target: T1, Aurora kinase A (Homo sapiens, UniProt O14965)
T1 sequence (O14965 whole entry): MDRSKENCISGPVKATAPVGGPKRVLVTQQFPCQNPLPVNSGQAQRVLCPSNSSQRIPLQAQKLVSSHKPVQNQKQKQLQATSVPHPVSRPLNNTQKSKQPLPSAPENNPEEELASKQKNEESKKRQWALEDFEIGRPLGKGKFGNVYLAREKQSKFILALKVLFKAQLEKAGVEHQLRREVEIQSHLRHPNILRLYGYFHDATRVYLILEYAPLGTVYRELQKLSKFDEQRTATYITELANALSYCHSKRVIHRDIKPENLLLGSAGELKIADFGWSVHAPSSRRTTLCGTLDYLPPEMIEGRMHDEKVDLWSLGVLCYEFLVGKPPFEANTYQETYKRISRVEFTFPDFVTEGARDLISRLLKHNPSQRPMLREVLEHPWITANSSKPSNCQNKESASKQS

[1] = target: Bone morphogenetic protein receptor type-1A (Homo sapiens, UniProt P36894)
Sequence of Bone morphogenetic protein receptor type-1A (P36894 whole entry): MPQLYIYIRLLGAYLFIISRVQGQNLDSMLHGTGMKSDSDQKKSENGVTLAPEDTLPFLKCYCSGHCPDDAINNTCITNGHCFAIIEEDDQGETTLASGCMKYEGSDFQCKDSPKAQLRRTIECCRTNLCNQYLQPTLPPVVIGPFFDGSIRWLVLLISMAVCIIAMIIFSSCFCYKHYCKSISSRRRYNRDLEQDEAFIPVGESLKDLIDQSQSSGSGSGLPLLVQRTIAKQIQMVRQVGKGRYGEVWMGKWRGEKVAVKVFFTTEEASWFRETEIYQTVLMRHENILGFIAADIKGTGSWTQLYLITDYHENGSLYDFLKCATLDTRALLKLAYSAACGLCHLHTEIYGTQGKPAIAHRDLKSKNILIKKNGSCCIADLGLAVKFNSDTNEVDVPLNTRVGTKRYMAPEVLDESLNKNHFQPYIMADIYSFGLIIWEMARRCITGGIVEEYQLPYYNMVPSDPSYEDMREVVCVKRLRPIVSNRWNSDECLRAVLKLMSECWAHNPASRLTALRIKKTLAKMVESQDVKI

[2] = target: Serine/threonine-protein kinase/endoribonuclease IRE2 (Homo sapiens, UniProt Q76MJ5)
Sequence of Serine/threonine-protein kinase/endoribonuclease IRE2 (Q76MJ5 whole entry): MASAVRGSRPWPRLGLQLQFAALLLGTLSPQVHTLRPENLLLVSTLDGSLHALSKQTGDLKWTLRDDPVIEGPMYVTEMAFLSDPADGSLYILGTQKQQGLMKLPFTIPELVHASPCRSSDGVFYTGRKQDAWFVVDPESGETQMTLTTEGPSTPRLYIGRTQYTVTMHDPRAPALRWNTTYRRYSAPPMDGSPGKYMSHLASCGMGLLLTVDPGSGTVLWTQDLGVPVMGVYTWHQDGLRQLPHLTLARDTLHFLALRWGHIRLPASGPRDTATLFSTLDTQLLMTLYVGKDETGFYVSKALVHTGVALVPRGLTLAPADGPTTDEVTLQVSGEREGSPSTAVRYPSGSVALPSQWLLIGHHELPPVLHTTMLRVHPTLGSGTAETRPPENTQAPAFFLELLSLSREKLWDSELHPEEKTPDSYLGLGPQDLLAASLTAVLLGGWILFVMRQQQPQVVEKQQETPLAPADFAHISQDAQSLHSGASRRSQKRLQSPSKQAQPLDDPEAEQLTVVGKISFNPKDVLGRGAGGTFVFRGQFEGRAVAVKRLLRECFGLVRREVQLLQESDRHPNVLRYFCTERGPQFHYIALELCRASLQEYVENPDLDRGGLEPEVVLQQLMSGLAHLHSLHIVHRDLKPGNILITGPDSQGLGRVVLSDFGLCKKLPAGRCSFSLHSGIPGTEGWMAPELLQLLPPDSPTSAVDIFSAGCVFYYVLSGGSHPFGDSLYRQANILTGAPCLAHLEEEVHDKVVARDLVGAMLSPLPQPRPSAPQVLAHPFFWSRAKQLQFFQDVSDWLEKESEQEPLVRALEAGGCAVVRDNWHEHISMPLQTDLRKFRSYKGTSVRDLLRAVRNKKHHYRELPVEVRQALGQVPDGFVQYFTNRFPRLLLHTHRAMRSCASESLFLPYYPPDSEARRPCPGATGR

[3] = target: T2, Serine/threonine-protein kinase LATS1 (Homo sapiens, UniProt O95835)
T2 sequence (O95835 whole entry): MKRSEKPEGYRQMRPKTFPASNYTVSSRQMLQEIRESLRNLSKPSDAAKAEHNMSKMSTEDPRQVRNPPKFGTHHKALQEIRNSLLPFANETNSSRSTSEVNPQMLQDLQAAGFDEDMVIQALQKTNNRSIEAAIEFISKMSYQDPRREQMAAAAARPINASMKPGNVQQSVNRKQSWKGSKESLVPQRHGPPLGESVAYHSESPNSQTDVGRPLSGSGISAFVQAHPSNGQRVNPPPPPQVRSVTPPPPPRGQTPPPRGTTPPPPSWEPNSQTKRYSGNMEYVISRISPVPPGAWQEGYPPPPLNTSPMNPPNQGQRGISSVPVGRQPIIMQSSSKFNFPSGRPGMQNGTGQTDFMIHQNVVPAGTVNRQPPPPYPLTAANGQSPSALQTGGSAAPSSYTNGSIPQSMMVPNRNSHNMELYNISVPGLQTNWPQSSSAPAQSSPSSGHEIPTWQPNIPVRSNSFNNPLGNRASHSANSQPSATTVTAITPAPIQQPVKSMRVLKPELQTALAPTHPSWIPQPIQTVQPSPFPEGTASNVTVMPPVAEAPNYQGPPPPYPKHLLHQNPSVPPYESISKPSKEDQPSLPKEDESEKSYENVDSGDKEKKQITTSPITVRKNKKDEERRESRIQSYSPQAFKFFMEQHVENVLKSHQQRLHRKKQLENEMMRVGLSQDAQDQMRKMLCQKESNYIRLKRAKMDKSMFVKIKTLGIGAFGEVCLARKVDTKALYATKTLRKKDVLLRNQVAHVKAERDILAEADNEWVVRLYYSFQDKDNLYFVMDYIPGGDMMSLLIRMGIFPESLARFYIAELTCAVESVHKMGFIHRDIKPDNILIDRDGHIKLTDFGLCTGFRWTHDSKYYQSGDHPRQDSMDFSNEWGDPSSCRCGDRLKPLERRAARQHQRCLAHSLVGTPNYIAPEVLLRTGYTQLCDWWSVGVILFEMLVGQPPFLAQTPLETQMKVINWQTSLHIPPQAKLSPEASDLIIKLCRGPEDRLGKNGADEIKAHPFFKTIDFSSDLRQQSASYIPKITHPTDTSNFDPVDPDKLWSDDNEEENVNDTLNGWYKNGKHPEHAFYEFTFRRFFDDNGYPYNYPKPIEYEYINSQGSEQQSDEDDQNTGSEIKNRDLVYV

[4] = target: Mitogen-activated protein kinase kinase kinase kinase 1 (Homo sapiens, UniProt Q92918)
Sequence of Mitogen-activated protein kinase kinase kinase kinase 1 (Q92918 whole entry): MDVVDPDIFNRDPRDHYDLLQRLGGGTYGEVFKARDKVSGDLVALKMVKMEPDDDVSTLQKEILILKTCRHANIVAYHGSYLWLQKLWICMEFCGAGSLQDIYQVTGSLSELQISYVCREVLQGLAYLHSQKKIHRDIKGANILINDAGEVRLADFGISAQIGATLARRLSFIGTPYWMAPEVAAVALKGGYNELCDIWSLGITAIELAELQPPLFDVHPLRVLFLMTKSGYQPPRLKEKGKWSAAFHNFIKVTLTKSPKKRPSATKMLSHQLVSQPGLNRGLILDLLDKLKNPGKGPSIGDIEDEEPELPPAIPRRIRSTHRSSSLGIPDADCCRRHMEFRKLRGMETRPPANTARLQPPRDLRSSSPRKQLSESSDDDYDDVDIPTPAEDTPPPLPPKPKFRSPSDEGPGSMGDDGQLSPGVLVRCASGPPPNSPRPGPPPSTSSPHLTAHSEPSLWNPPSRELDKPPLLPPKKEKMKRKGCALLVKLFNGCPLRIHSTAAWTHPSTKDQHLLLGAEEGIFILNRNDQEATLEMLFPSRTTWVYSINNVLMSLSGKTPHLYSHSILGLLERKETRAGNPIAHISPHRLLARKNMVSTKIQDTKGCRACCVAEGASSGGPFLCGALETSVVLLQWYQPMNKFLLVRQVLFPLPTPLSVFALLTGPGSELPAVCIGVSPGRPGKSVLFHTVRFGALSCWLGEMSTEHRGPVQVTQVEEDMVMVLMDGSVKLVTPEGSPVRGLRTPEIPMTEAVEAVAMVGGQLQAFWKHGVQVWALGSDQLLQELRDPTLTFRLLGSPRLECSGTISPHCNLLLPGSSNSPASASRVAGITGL

[5] = target: Mitogen-activated protein kinase 1 (Homo sapiens, UniProt P28482)
Sequence of Mitogen-activated protein kinase 1 (P28482 whole entry): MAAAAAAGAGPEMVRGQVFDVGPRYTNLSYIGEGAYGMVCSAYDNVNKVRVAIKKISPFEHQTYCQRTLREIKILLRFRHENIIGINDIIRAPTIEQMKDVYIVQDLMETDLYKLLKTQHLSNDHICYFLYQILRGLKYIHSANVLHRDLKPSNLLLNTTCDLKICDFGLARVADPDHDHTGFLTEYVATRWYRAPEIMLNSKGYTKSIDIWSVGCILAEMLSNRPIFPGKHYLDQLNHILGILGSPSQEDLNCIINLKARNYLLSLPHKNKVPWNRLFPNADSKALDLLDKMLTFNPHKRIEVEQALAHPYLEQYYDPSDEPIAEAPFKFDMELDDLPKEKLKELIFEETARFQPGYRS

[6] = target: Receptor-interacting serine/threonine-protein kinase 3 (Homo sapiens, UniProt Q9Y572)
Sequence of Receptor-interacting serine/threonine-protein kinase 3 (Q9Y572 whole entry): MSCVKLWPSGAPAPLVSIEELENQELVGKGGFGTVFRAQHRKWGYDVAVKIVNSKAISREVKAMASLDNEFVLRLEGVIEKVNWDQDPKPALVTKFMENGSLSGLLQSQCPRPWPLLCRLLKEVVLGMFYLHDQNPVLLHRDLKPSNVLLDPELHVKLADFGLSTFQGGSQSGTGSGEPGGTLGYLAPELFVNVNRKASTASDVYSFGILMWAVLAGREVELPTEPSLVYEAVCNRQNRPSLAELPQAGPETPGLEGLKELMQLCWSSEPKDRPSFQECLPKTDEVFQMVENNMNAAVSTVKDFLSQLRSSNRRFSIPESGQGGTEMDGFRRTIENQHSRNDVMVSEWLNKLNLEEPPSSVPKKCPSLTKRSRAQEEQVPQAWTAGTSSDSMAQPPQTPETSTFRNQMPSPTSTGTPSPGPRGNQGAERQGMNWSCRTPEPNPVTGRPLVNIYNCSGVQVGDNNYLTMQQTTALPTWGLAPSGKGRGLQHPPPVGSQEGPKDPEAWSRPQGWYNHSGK

[7] = target: Ribosomal protein S6 kinase alpha-5 (Homo sapiens, UniProt O75582)
Sequence of Ribosomal protein S6 kinase alpha-5 (O75582 whole entry): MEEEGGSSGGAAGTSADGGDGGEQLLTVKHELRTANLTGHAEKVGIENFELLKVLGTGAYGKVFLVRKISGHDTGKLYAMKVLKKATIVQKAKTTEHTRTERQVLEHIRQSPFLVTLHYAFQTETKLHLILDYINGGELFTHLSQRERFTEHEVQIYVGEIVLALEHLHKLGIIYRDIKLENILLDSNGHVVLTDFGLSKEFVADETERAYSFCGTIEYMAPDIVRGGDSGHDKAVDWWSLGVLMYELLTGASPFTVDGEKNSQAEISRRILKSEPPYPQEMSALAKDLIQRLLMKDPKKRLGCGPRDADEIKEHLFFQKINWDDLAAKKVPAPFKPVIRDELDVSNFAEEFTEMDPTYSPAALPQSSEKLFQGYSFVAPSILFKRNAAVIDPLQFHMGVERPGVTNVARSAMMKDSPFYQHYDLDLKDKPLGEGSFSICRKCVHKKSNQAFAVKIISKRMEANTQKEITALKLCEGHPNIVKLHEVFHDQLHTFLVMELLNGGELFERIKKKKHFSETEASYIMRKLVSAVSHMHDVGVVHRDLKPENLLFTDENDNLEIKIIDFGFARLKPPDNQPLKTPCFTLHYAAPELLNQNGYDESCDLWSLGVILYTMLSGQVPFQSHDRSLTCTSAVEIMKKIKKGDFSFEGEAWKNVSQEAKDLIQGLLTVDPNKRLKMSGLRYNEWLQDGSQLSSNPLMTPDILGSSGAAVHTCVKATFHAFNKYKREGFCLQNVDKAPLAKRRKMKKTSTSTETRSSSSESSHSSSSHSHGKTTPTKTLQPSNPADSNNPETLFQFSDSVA

ADP/ATP translocase 2 = target: T3, ADP/ATP translocase 2 (Homo sapiens, UniProt P05141)
T3 sequence (P05141 whole entry): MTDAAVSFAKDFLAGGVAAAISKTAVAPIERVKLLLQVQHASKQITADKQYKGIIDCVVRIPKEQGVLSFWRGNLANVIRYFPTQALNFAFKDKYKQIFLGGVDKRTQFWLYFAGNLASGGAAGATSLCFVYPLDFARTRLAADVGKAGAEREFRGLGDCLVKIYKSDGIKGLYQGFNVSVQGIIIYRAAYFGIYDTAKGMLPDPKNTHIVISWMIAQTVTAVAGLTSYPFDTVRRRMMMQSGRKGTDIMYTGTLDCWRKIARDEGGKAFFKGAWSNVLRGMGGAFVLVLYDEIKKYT
Also: in the data inactive means no Kd found up to 30 µM.

| Compound | Kd (Actin-related protein 2) | Kd (Aurora kinase A) | Kd [1] | Kd [2] | Kd [3] | Kd [4] | Kd [5] | Kd [6] | Kd [7] | Kd (ADP/ATP translocase 2) |
| --- | --- | --- | --- | --- | --- | --- | --- | --- | --- | --- |
| COc1cc2ncnc(Nc3ccc(F)c(Cl)c3)c2cc1NC(=O)/C=C/CN1CCCCC1 [DACOMITINIB ANHYDROUS] | > 30 µM (inactive) | > 30 µM (inactive) | > 30 µM (inactive) | > 30 µM (inactive) | > 30 µM (inactive) | > 30 µM (inactive) | > 30 µM (inactive) | 3.64 µM (active) | > 30 µM (inactive) | > 30 µM (inactive) |
| COc1cc(Nc2ncc(F)c(Nc3ccc4c(n3)N(COP(=O)(O)O)C(=O)C(C)(C)O4)n2)cc(OC)c1OC [FOSTAMATINIB] | > 30 µM (inactive) | 0.3 µM (active) | > 30 µM (inactive) | > 30 µM (inactive) | 2.16 µM (active) | > 30 µM (inactive) | > 30 µM (inactive) | > 30 µM (inactive) | > 30 µM (inactive) | > 30 µM (inactive) |
| Cc1c(Cn2c(C)nc3c(C(=O)O)cc(N4CCOCC4)cc32)cccc1C(F)(F)F [GSK-2636771] | > 30 µM (inactive) | > 30 µM (inactive) | > 30 µM (inactive) | > 30 µM (inactive) | > 30 µM (inactive) | > 30 µM (inactive) | > 30 µM (inactive) | > 30 µM (inactive) | > 30 µM (inactive) | > 30 µM (inactive) |
| C#Cc1cccc(Nc2ncnc3cc4c(cc23)OCCOCCOCCO4)c1 [ICOTINIB] | > 30 µM (inactive) | > 30 µM (inactive) | > 30 µM (inactive) | > 30 µM (inactive) | > 30 µM (inactive) | > 30 µM (inactive) | > 30 µM (inactive) | > 30 µM (inactive) | > 30 µM (inactive) | > 30 µM (inactive) |
| Cc1ccc(C(=O)Nc2ccc(Oc3cc4cnn(C)c4cc3-c3cn[nH]c3)c(F)c2)c(=O)n1-c1ccc(F)cc1 [MERESTINIB] | > 30 µM (inactive) | > 30 µM (inactive) | > 30 µM (inactive) | > 30 µM (inactive) | > 30 µM (inactive) | > 30 µM (inactive) | > 30 µM (inactive) | > 30 µM (inactive) | > 30 µM (inactive) | > 30 µM (inactive) |
| COc1cccc2cc(-c3nc([C@H]4CC[C@H](C(=O)O)CC4)n4ncnc(N)c34)[nH]c12 [OSI-027] | > 30 µM (inactive) | > 30 µM (inactive) | > 30 µM (inactive) | > 30 µM (inactive) | > 30 µM (inactive) | > 30 µM (inactive) | > 30 µM (inactive) | > 30 µM (inactive) | > 30 µM (inactive) | > 30 µM (inactive) |
| O=C(Nc1ccc(OC(F)(F)F)cc1)c1sccc1NCc1ccnc2ccccc12 [OSI-930] | > 30 µM (inactive) | > 30 µM (inactive) | > 30 µM (inactive) | > 30 µM (inactive) | > 30 µM (inactive) | > 30 µM (inactive) | > 30 µM (inactive) | 1.7 µM (active) | > 30 µM (inactive) | > 30 µM (inactive) |
| C=CC(=O)Nc1cc(Nc2nccc(-c3cn(C)c4ccccc34)n2)c(OC)cc1N(C)CCN(C)C [OSIMERTINIB] | > 30 µM (inactive) | > 30 µM (inactive) | > 30 µM (inactive) | > 30 µM (inactive) | > 30 µM (inactive) | > 30 µM (inactive) | > 30 µM (inactive) | > 30 µM (inactive) | > 30 µM (inactive) | > 30 µM (inactive) |
| FC(F)(F)c1ccc(CNc2ccc(Cc3c[nH]c4ncc(Cl)cc34)cn2)cn1 [PEXIDARTINIB] | > 30 µM (inactive) | > 30 µM (inactive) | > 30 µM (inactive) | > 30 µM (inactive) | > 30 µM (inactive) | > 30 µM (inactive) | > 30 µM (inactive) | > 30 µM (inactive) | > 30 µM (inactive) | > 30 µM (inactive) |
| O=C(NC[C@H](O)CO)c1ccncc1Nc1ccc(I)cc1F [PIMASERTIB] | > 30 µM (inactive) | > 30 µM (inactive) | > 30 µM (inactive) | > 30 µM (inactive) | > 30 µM (inactive) | > 30 µM (inactive) | > 30 µM (inactive) | > 30 µM (inactive) | > 30 µM (inactive) | > 30 µM (inactive) |
| COCCN1CCN(Cc2ccc(-c3n[nH]c4c3C(=O)c3c(NC(=O)NN5CCOCC5)cccc3-4)cc2)CC1 [RGB-286638] | > 30 µM (inactive) | > 30 µM (inactive) | > 30 µM (inactive) | > 30 µM (inactive) | > 30 µM (inactive) | > 30 µM (inactive) | > 30 µM (inactive) | > 30 µM (inactive) | > 30 µM (inactive) | > 30 µM (inactive) |
| C=CC(=O)Nc1cccc(Nc2nc(Nc3ccc(N4CCN(C(C)=O)CC4)cc3OC)ncc2C(F)(F)F)c1 [ROCILETINIB] | > 30 µM (inactive) | > 30 µM (inactive) | > 30 µM (inactive) | > 30 µM (inactive) | > 30 µM (inactive) | > 30 µM (inactive) | > 30 µM (inactive) | > 30 µM (inactive) | > 30 µM (inactive) | > 30 µM (inactive) |
| O=C(O)c1ccc2c(c1)nc(Nc1cccc(Cl)c1)c1ccncc12 [SILMITASERTIB] | > 30 µM (inactive) | > 30 µM (inactive) | > 30 µM (inactive) | > 30 µM (inactive) | > 30 µM (inactive) | > 30 µM (inactive) | > 30 µM (inactive) | 2.18 µM (active) | > 30 µM (inactive) | > 30 µM (inactive) |
| CN1CCN(c2nc(C3=C(c4c[nH]c5ccccc45)C(=O)NC3=O)c3ccccc3n2)CC1 [SOTRASTAURIN] | > 30 µM (inactive) | > 30 µM (inactive) | > 30 µM (inactive) | > 30 µM (inactive) | > 30 µM (inactive) | > 30 µM (inactive) | > 30 µM (inactive) | > 30 µM (inactive) | > 30 µM (inactive) | > 30 µM (inactive) |
| CC(C)(O)CC(=O)NCCn1ccc2ncnc(Nc3ccc(Oc4cccc(C(F)(F)F)c4)c(Cl)c3)c21 [TAK-285] | > 30 µM (inactive) | > 30 µM (inactive) | > 30 µM (inactive) | > 30 µM (inactive) | > 30 µM (inactive) | > 30 µM (inactive) | > 30 µM (inactive) | > 30 µM (inactive) | > 30 µM (inactive) | > 30 µM (inactive) |
| Cc1cc(C(=O)Nc2cc(Oc3ccc4nc(NC(=O)C5CC5)cn4n3)ccc2C)n(C)n1 [TAK-593] | > 30 µM (inactive) | > 30 µM (inactive) | > 30 µM (inactive) | > 30 µM (inactive) | > 30 µM (inactive) | > 30 µM (inactive) | > 30 µM (inactive) | > 30 µM (inactive) | > 30 µM (inactive) | > 30 µM (inactive) |
